Experimental data: patent US20090118286A1, “Heterobicyclic Acrylamides” (Bayer Cropscience AG, priority 2005, published 2009)

Test: log P determination by HPLC (EEC Directive 79/831 Annex V.A8, gradient method)
Type: physicochemical
Settings: not given

SMILES	Physical data (logP)	Physical data: log P	Physical data: logP
COCC(C)NC(=O)/C=C/c1c(-c2ccccc2Cl)nc2sc(C(F)(F)F)nn12 (racemic) [Example 0169]	2.99	–	–
CC(NC(=O)/C=C/c1c(-c2ccccc2Cl)nc2sc(C(F)(F)F)nn12)c1ccccc1 (racemic) [Example 0189]	3.81	–	–
CC(COc1ccccc1)NC(=O)/C=C/c1c(-c2ccccc2Cl)nc2sc(C(F)(F)F)nn12 (racemic) [Example 0194]	4.03	–	–
CC(ONC(=O)/C=C/c1c(-c2ccccc2Cl)nc2sc(C(F)(F)F)nn12)c1ccccc1 (racemic) [Example 0213]	3.72	–	–
COCC(C)NC(=O)/C=C/c1c(-c2ccccc2C)nc2sc(C(F)(F)F)nn12 (racemic) [Example 0240]	–	3.07	–
CC(NC(=O)/C=C/c1c(-c2sccc2Cl)nc2sc(C(F)(F)F)nn12)C(F)(F)F (racemic) [Example 0922]	–	–	3.65
CC(NC(=O)/C=C/c1c(-c2ccc(Cl)nc2)nc2sc(C(F)(F)F)nn12)C(F)(F)F (racemic) [Example 0935]	–	–	3.32
CC(NC(=O)/C=C/c1c(-c2cccnc2Cl)nc2sc(C(F)(F)F)nn12)C(F)(F)F (racemic) [Example 0948]	–	–	2.76
CC(NC(=O)/C=C/c1c(-c2ccccc2Cl)nc2sc(C(F)(F)C(F)(F)F)nn12)C(F)(F)F (racemic) [Example 0961]	–	–	4.07
CC(NC(=O)/C=C/c1c(-c2ccc(F)cc2Cl)nc2sc(C(F)(F)C(F)(F)F)nn12)C(F)(F)F (racemic) [Example 0974]	–	–	4.19
CC(NC(=O)/C=C/c1c(-c2nccs2)nc2sc(C(F)(F)C(F)(F)F)nn12)C(F)(F)F (racemic) [Example 0987]	–	–	3.81
CC(NC(=O)/C=C/c1c(-c2ccccc2Cl)nc2sc(C(F)(F)F)nn12)C(F)(F)F (single isomer, unassigned) [Example 0184]	3.63	–	–
CC(NC(=O)/C=C/c1c(-c2ccccc2Cl)nc2sc(C(F)(F)F)nn12)C(F)(F)F (single isomer, unassigned) [Example 0185]	3.77	–	–
NC(=O)/C=C/c1c(-c2ccc(Cl)cc2)nc2sc(C(F)(F)F)nn12 [Example 0004]	2.62	–	–
CNC(=O)/C=C/c1c(-c2ccc(Cl)cc2)nc2sc(C(F)(F)F)nn12 [Example 0005]	2.88	–	–
CCNC(=O)/C=C/c1c(-c2ccc(Cl)cc2)nc2sc(C(F)(F)F)nn12 [Example 0006]	3.25	–	–
CC(C)NC(=O)/C=C/c1c(-c2ccc(Cl)cc2)nc2sc(C(F)(F)F)nn12 [Example 0007]	3.61	–	–
CC(C)(C)NC(=O)/C=C/c1c(-c2ccc(Cl)cc2)nc2sc(C(F)(F)F)nn12 [Example 0009]	4.23	–	–
O=C(/C=C/c1c(-c2ccc(Cl)cc2)nc2sc(C(F)(F)F)nn12)NC1CC1 [Example 0011]	3.31	–	–
O=C(/C=C/c1c(-c2ccc(Cl)cc2)nc2sc(C(F)(F)F)nn12)NC1CCC1 [Example 0012]	3.81	–	–
O=C(/C=C/c1c(-c2ccc(Cl)cc2)nc2sc(C(F)(F)F)nn12)NC1CCCC1 [Example 013]	4.03	–	–

SMILES	Physical data (logP)	Physical data: log P	Physical data: logP
O=C(/C=C/c1c(-c2ccc(Cl)cc2)nc2sc(C(F)(F)F)nn12)NC1CCCCC1 [Example 0014]	4.37	–	–
O=C(/C=C/c1c(-c2ccc(Cl)cc2)nc2sc(C(F)(F)F)nn12)NCC1CC1 [Example 0015]	3.72	–	–
CCC(C)NC(=O)/C=C/c1c(-c2ccc(Cl)cc2)nc2sc(C(F)(F)F)nn12 (stereo not drawn) [Example 0016]	3.94	–	–
CCCC(C)NC(=O)/C=C/c1c(-c2ccc(Cl)cc2)nc2sc(C(F)(F)F)nn12 (stereo not drawn) [Example 0017]	4.32	–	–
COCC(C)NC(=O)/C=C/c1c(-c2ccc(Cl)cc2)nc2sc(C(F)(F)F)nn12 (stereo not drawn) [Example 0018]	4.27	–	–
CC(C)C(C)NC(=O)/C=C/c1c(-c2ccc(Cl)cc2)nc2sc(C(F)(F)F)nn12 (stereo not drawn) [Example 0023]	4.25	–	–
CC(NC(=O)/C=C/c1c(-c2ccc(Cl)cc2)nc2sc(C(F)(F)F)nn12)c1ccccc1 (stereo not drawn) [Example 0038]	4.32	–	–
CCC(NC(=O)/C=C/c1c(-c2ccc(Cl)cc2)nc2sc(C(F)(F)F)nn12)c1ccccc1 (stereo not drawn) [Example 0039]	4.56	–	–
CC(COc1ccccc1)NC(=O)/C=C/c1c(-c2ccc(Cl)cc2)nc2sc(C(F)(F)F)nn12 (stereo not drawn) [Example 0043]	4.51	–	–
CCC(NC(=O)/C=C/c1c(-c2ccc(Cl)cc2)nc2sc(C(F)(F)F)nn12)C1CCCCC1 (stereo not drawn) [Example 0045]	5.31	–	–
CC(NC(=O)/C=C/c1c(-c2ccc(Cl)cc2)nc2sc(C(F)(F)F)nn12)c1ccccn1 (stereo not drawn) [Example 0052]	2.77	–	–
O=C(/C=C/c1c(-c2ccc(Cl)cc2)nc2sc(C(F)(F)F)nn12)NOCC1CC1 [Example 0060]	3.59	–	–
CC(ONC(=O)/C=C/c1c(-c2ccc(Cl)cc2)nc2sc(C(F)(F)F)nn12)c1ccccc1 (stereo not drawn) [Example 0062]	4.18	–	–
CCC(CC)NC(=O)/C=C/c1c(-c2ccc(Cl)cc2)nc2sc(C(F)(F)F)nn12 [Example 0064]	4.23	–	–
CN(C)C(=O)/C=C/c1c(-c2ccc(Cl)cc2)nc2sc(C(F)(F)F)nn12 [Example 0065]	3.42	–	–
CCN(CC)C(=O)/C=C/c1c(-c2ccc(Cl)cc2)nc2sc(C(F)(F)F)nn12 [Example 0070]	4.16	–	–
O=C(/C=C/c1c(-c2ccc(Cl)cc2)nc2sc(C(F)(F)F)nn12)N1CCCCC1 [Example 0071]	4.31	–	–
O=C(/C=C/c1c(-c2ccc(Cl)cc2)nc2sc(C(F)(F)F)nn12)N1CCOCC1 [Example 0072]	3.27	–	–
CC(C)NC(=O)/C=C/c1c(-c2cccc(Cl)c2)nc2sc(C(F)(F)F)nn12 [Example 0078]	3.67	–	–
CC(C)(C)NC(=O)/C=C/c1c(-c2cccc(Cl)c2)nc2sc(C(F)(F)F)nn12 [Example 0080]	4.27	–	–
O=C(/C=C/c1c(-c2cccc(Cl)c2)nc2sc(C(F)(F)F)nn12)NC1CC1 [Example 0082]	3.31	–	–

SMILES	Physical data (logP)	Physical data: log P	Physical data: logP
O=C(/C=C/c1c(-c2cccc(Cl)c2)nc2sc(C(F)(F)F)nn12)NC1CCC1 [Example 0083]	3.85	–	–
O=C(/C=C/c1c(-c2cccc(Cl)c2)nc2sc(C(F)(F)F)nn12)NC1CCCC1 [Example 0084]	4.13	–	–
O=C(/C=C/c1c(-c2cccc(Cl)c2)nc2sc(C(F)(F)F)nn12)NC1CCCCC1 [Example 0085]	4.46	–	–
O=C(/C=C/c1c(-c2cccc(Cl)c2)nc2sc(C(F)(F)F)nn12)NCC1CC1 [Example 0086]	3.81	–	–
CCC(C)NC(=O)/C=C/c1c(-c2cccc(Cl)c2)nc2sc(C(F)(F)F)nn12 (stereo not drawn) [Example 0087]	3.99	–	–
CCCC(C)NC(=O)/C=C/c1c(-c2cccc(Cl)c2)nc2sc(C(F)(F)F)nn12 (stereo not drawn) [Example 0088]	4.37	–	–
COCC(C)NC(=O)/C=C/c1c(-c2cccc(Cl)c2)nc2sc(C(F)(F)F)nn12 (stereo not drawn) [Example 0089]	3.46	–	–
CC(C)C(C)NC(=O)/C=C/c1c(-c2cccc(Cl)c2)nc2sc(C(F)(F)F)nn12 (stereo not drawn) [Example 0094]	4.32	–	–
CC(NC(=O)/C=C/c1c(-c2cccc(Cl)c2)nc2sc(C(F)(F)F)nn12)c1ccccc1 (stereo not drawn) [Example 0108]	4.37	–	–
CC(COc1ccccc1)NC(=O)/C=C/c1c(-c2cccc(Cl)c2)nc2sc(C(F)(F)F)nn12 (stereo not drawn) [Example 0113]	4.56	–	–
CC(NC(=O)/C=C/c1c(-c2cccc(Cl)c2)nc2sc(C(F)(F)F)nn12)c1cccnc1 (stereo not drawn) [Example 0124]	2.8	–	–
O=C(/C=C/c1c(-c2cccc(Cl)c2)nc2sc(C(F)(F)F)nn12)NOCC1CC1 [Example 0130]	3.63	–	–
CC(ONC(=O)/C=C/c1c(-c2cccc(Cl)c2)nc2sc(C(F)(F)F)nn12)c1ccccc1 (stereo not drawn) [Example 0132]	4.23	–	–
CCC(CC)NC(=O)/C=C/c1c(-c2cccc(Cl)c2)nc2sc(C(F)(F)F)nn12 [Example 0134]	4.27	–	–
C=CCN(C)C(=O)/C=C/c1c(-c2cccc(Cl)c2)nc2sc(C(F)(F)F)nn12 [Example 0137]	4.0	–	–
CC(C)CN(C)C(=O)/C=C/c1c(-c2cccc(Cl)c2)nc2sc(C(F)(F)F)nn12 [Example 0138]	4.63	–	–
CCN(CC)C(=O)/C=C/c1c(-c2cccc(Cl)c2)nc2sc(C(F)(F)F)nn12 [Example 0140]	4.28	–	–
O=C(/C=C/c1c(-c2cccc(Cl)c2)nc2sc(C(F)(F)F)nn12)N1CCCCC1 [Example 0141]	4.37	–	–
CCNC(=O)/C=C/c1c(-c2ccccc2Cl)nc2sc(C(F)(F)F)nn12 [Example 0147]	2.82	–	–
CC(C)(C)NC(=O)/C=C/c1c(-c2ccccc2Cl)nc2sc(C(F)(F)F)nn12 [Example 0150]	3.72	–	–
O=C(/C=C/c1c(-c2ccccc2Cl)nc2sc(C(F)(F)F)nn12)NC1CCCC1 [Example 0154]	3.55	–	–

Same assay, conditions: HPLC gradient method, acetonitrile/0.1% strength aqueous phosphoric acid or formic acid; preparation examples; read-out: log P

SMILES	chromatographic logP
CSC[C@H](C)NC(=O)/C=C/c1c(-c2ccc(Cl)cc2Cl)nc2sc(C(F)(F)F)nn12 [Example 0001, (2E)-3-[6-(2,4-Dichlorophenyl)-2-(trifluoromethyl)imidazo[2,1-b][1,3,4]thiadiazol-5-yl]-N-[(1S)-1-methyl-2-(methylthio)ethyl]acrylamide]	3.91
C[C@@H](C[S+](C)[O-])NC(=O)/C=C/c1c(-c2ccc(Cl)cc2Cl)nc2sc(C(F)(F)F)nn12 (stereo partly drawn) [Example 0002, (2E)-3-[6-(2,4-Dichlorophenyl)-2-(trifluoromethyl)imidazo[2,1-b][1,3,4]thiadiazol-5-yl]-N-[(1S)-1-methyl-2-(methylsulphinyl)ethyl]acrylamide]	2.48
C[C@@H](CS(C)(=O)=O)NC(=O)/C=C/c1c(-c2ccc(Cl)cc2Cl)nc2sc(C(F)(F)F)nn12 [Example 0003, (2E)-3-[6-(2,4-Dichlorophenyl)-2-(trifluoromethyl)imidazo[2,1-b][1,3,4]thiadiazol-5-yl]-N-[(1S)-1-methyl-2-(methylsulphonyl)ethyl]acrylamide]	3.03
